Measurements: ChEMBL document CHEMBL1121781, “Potential antitumor agents. 34. Quantitative relationships between DNA binding and molecular structure for 9-anilinoacridines substituted in the anilino ring” (J Med Chem, 1981)
The source made the active and inactive calls. The calls are words filed in the database; no cut-off is given here.

Key:
Nucleic Acid [1] = test system: Nucleic Acid
Description: Association constant for binding to poly [d(A-T)]

Nucleic Acid [2] = test system: Nucleic Acid; remark: listed apart in the source
Description: Association constant for binding to poly [d(G-C)]

Calf thymus DNA = details: Bos taurus
Description: Inhibitory concentration against ethidium binding to DNA

Description for Mus musculus: Maximum percent increase in life span of mice
Description for physchem: Ionisation constant (pKa)

SMILES	pKa (physchem)	Log K (Nucleic Acid [1])	Log K (Nucleic Acid [2])	C50 (Calf thymus DNA)	ILS (Mus musculus)
CC(=O)Nc1cccc(Nc2c3ccccc3nc3ccccc23)c1	7.16	5.9	5.96	13 µM	
N#Cc1ccc(Nc2c3ccccc3nc3ccccc23)cc1	5.93	5.7	5.86	15 µM	inactive
O=C(Nc1ccccc1)Nc1ccc(Nc2c3ccccc3nc3ccccc23)cc1	7.67	6.37	6.3	3.8 µM	
NC(=O)c1ccccc1Nc1c2ccccc2nc2ccccc12		5.37	5.43	38 µM	inactive
CS(=O)(=O)Nc1cccc(Nc2c3ccccc3nc3ccccc23)c1			5.86	15 µM	
Nc1ccc(S(=O)(=O)Nc2ccc(Nc3c4ccccc4nc4ccccc34)cc2)cc1	7.15	6.3	6.26	4.4 µM	
CN(c1ccc(Nc2c3ccccc3nc3ccccc23)cc1)S(C)(=O)=O		5.89	6	9.9 µM	
Nc1ccc(Nc2c3ccccc3nc3ccccc23)cc1	8.36	6.31	6.23	2.3 µM	
CS(=O)(=O)Nc1ccc(Nc2c3ccccc3nc3ccccc23)cc1				8.9 µM	
NS(=O)(=O)c1ccccc1Nc1c2ccccc2nc2ccccc12		5.67	5.77	18 µM	inactive
O=S(=O)(Nc1ccc(Nc2c3ccccc3nc3ccccc23)cc1)c1ccccc1	7.09	6.2	6.23	5.7 µM	
O=[N+]([O-])c1ccccc1Nc1c2ccccc2nc2ccccc12		5.36	5.49	36 µM	inactive
O=C(Nc1ccc(Nc2c3ccccc3nc3ccccc23)cc1)c1ccccc1	7.39	6.2	6.14	5.4 µM	
NC(=O)c1ccc(Nc2c3ccccc3nc3ccccc23)cc1		5.83	5.77	18 µM	inactive
CC(=O)Nc1ccc(Nc2c3ccccc3nc3ccccc23)cc1	7.51			4.7 µM	
CN(C)c1ccc(Nc2c3ccccc3nc3ccccc23)cc1	8.46	6.51	6.29	2 µM	
COc1ccccc1Nc1c2ccccc2nc2ccccc12	7.74	5.5	5.47	34 µM	
COC(=O)c1ccc(Nc2c3ccccc3nc3ccccc23)cc1		5.88	5.86	15 µM	
CCNc1ccc(Nc2c3ccccc3nc3ccccc23)cc1	8.3	6.44	6.36	1.7 µM	
NS(=O)(=O)c1ccc(Nc2c3ccccc3nc3ccccc23)cc1		5.96	5.92	14 µM	inactive
CNc1ccc(Nc2c3ccccc3nc3ccccc23)cc1	8.42	6.55	6.54	1.2 µM	
COC(=O)Nc1ccc(Nc2c3ccccc3nc3ccccc23)cc1	7.64		6.23	5.3 µM	
O=[N+]([O-])c1ccc(Nc2c3ccccc3nc3ccccc23)cc1		5.48	5.69	19 µM	inactive
Nc1cccc(Nc2c3ccccc3nc3ccccc23)c1	7.58	6.11	6.01	8.6 µM	
Oc1ccc(Nc2c3ccccc3nc3ccccc23)cc1	7.91	6.28	6.21	5.1 µM	
CNC(=O)Nc1ccc(Nc2c3ccccc3nc3ccccc23)cc1	7.77			4.1 µM	
Cc1ccc(Nc2c3ccccc3nc3ccccc23)cc1	7.72	5.99	5.99	10 µM	
